Data published in US10919859B2, “Benzylaminopyridylcyclopropanecarboxylic acids, pharmaceutical compositions and uses thereof” (Boehringer Ingelheim International GmbH, priority 2017, dated 2021).
In brackets after ≈: the same amount, converted by molar mass.

Assays:
[1] = Aqueous solubility (buffer vs acetonitrile/water, LC-UV); assay type: physicochemical; conditions: for solubility at 24 h: aqueous buffer, kinetic from dmso stock
Procedure: The aqueous solubility of the compounds of the invention is determined by comparing the amount dissolved in buffer to the amount in an acetonitrile/water (1/1) solution. Starting from a 10 mM DMSO stock solution aliquots are diluted with acetonitrile/water (1/1) or buffer, respectively. After 24 h of shaking, the solutions are filtrated and analyzed by LC-UV. The amount dissolved in buffer is compared to the amount in the acetonitrile solution.

human GPR40 receptor = human GPR40 receptor (Homo sapiens (Human), UniProt O14842); assay: IP1 accumulation measurements using the IPOne assay system; assay type: cell-based; conditions: 1321N1 cells stably expressing human GPR40, 1 h at 37° C.
human GPR40 receptor, sequence (O14842 whole entry): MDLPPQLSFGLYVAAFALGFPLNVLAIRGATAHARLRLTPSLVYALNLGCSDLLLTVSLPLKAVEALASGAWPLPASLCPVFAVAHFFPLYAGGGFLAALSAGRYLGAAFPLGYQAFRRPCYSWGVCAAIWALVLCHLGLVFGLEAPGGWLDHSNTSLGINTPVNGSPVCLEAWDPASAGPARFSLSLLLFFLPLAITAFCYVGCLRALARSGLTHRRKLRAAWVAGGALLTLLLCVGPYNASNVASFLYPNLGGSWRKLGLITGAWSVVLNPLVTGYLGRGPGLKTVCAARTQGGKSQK
Procedure: IP1 accumulation measurements using the IPOne assay system—1321N1 cells stably expressing human GPR40 receptor (Euroscreen, Belgium) are seeded 24 h before the assay in white 384-well plates in culture medium containing 10% FCS, 1% Na-Pyruvate and 400 μg/mL G418. IP1 is assayed according to the manufacturer's description (Cisbio Bioassays, France). In brief, the assay is started by substitution of the culture medium by stimulation buffer (Hepes 10 mM, CaCl2 1 mM, MgCl2 0.5 mM, KCl 4.2 mM, NaCl 146 mM, glucose 5.5 mM and LiCl 50 mM, pH 7.4). Cells are stimulated for 1 h at 37° C., 5% CO2 by addition of the compounds that are diluted in stimulation buffer containing LiCl. Assays are stopped by adding HTRF-conjugates (IP1-d2 and Anti-IP1 cryptate Tb) and lysis buffer, provided by the manufacturer. After an incubation time of 1 h at room temperature plates are measured using an EnVision™, Perkin Elmer. The obtained fluorescence ratios at 665/615 […] are then used to calculate the pEC50 values using Assay Explorer 3.3 Software (Accelrys, Inc.) by interpolation using an IP1 reference curve and subsequent sigmoidal curve fitting allowing for a variable hill slope.

[2] = pH 2.2 buffer, 24 h shaking, 2.5% DMSO, examples in this invention

Row | SMILES | solubility at 24 h [1, 2] | EC50 (human GPR40 receptor) | Solubility at pH value 2.2 ([1]; pH 2.2) | Solubility at pH value 2.2 [1, 2]
1 | COc1ccc(-c2ccc(-c3cc(CNc4ccc([C@H]5C[C@@H]5C(=O)O)nc4)c(F)cc3F)cc2)nc1 [Example 7, (1S,2S)-2-(5-{[4,6-Difluoro-4′-(5-methoxy-pyridin-2-yl)-biphenyl-3-ylmethyl]-amino}-pyridin-2-yl)-cyclopropanecarboxylic acid] | 77 µg/mL (≈ 158 µM) | 27 nM | – | –
2 | Cc1cc(OCC(=O)O)cc(C)c1-c1ccc(F)c(CNc2ccc([C@H]3C[C@@H]3C(=O)O)nc2)c1 [Example 14] | – | 4520 nM | 71 μg/mL | –
3 | Cc1cc(N)ccc1-c1cc(CNc2ccc([C@H]3C[C@@H]3C(=O)O)nc2)c(F)cc1F [Example 8, (1S,2S)-2-{5-[(4′-Amino-4,6-difluoro-2′-methyl-biphenyl-3-ylmethyl)-amino]-pyridin-2-yl}-cyclopropanecarboxylic acid] | > 96 µg/mL | 127 nM | – | –
4 | COc1ccc(-c2ccc(-c3cc(CNc4ccc([C@H]5C[C@@H]5C(=O)O)nc4)c(F)cc3F)cc2)nn1 [Example 6, (1S,2S)-2-(5-{[4,6-Difluoro-4′-(6-methoxy-pyridazin-3-yl)-biphenyl-3-ylmethyl]-amino}-pyridin-2-yl)-cyclopropanecarboxylic acid] | 56 µg/mL (≈ 115 µM) | 64 nM | – | –
5 | Cc1cc(OCCC(C)(C)O)cc(C)c1-c1cc(CNc2ccc([C@H]3C[C@@H]3C(=O)O)nc2)ccc1C(F)(F)F [Example 5] | < 1 µg/mL | 12 nM | – | –
6 | O=C(O)[C@H]1C[C@@H]1c1ccc(NCc2cc(-c3ccc(O)c(Cl)c3)c(F)cc2F)cn1 [Example 9, (1S,2S)-2-{5-[(3′-Chloro-4,6-difluoro-4′-hydroxy-biphenyl-3-ylmethyl)-amino]-pyridin-2-yl}-cyclopropanecarboxylic acid] | 58 µg/mL (≈ 135 µM) | 943 nM | – | –
7 | Cc1cc(C(=O)N(C)C)cc(C)c1-c1ccc(F)c(CNc2ccc([C@H]3C[C@@H]3C(=O)O)nc2)c1 [Example 42] | – | 231 nM | 71 μg/mL | –
8 | Cc1cc(OCC2(O)CCOCC2)cc(C)c1-c1ccc(F)c(CNc2ccc([C@H]3C[C@@H]3C(=O)O)nc2)c1 [Example 49] | – | 147 nM | 83 μg/mL | –
9 | COc1cc(C)c(-c2ccc(F)c(CNc3ccc([C@H]4C[C@@H]4C(=O)O)nc3)c2)c(C)c1 [Example 35] | – | 49 nM | 63 μg/mL | –
10 | Cc1cc(-c2ccn(C)c(=O)n2)cc(C)c1-c1ccc(F)c(CNc2ccc([C@H]3C[C@@H]3C(=O)O)nc2)c1 [Example 56] | – | 32 nM | – | 86 μg/mL
11 | COc1c(F)cc(-c2cc(CNc3ccc([C@H]4C[C@@H]4C(=O)O)nc3)c(F)cc2F)cc1F [Example 10, (1S,2S)-2-{5-[(4,6,3′,5′-Tetrafluoro-4′-methoxy-biphenyl-3-ylmethyl)-amino]-pyridin-2-yl}-cyclopropanecarboxylic acid] | 61 µg/mL (≈ 137 µM) | 52 nM | – | –
12 | Cc1cc(-c2cc(=O)n(C)cn2)cc(C)c1-c1ccc(F)c(CNc2ccc([C@H]3C[C@@H]3C(=O)O)nc2)c1 [Example 18] | – | 23 nM | 72 μg/mL | –
13 | Cc1cc(OCC2CCOCC2)cc(C)c1-c1ccc(F)c(CNc2ccc([C@H]3C[C@@H]3C(=O)O)nc2)c1 [Example 44] | – | 18 nM | 66 μg/mL | –
14 | Cc1cc(-c2nnn(CC(C)(C)O)n2)cc(C)c1-c1ccc(F)c(CNc2ccc([C@H]3C[C@@H]3C(=O)O)nc2)c1 [Example 54] | – | 10 nM | 81 μg/mL | –
15 | O=C(O)[C@H]1C[C@@H]1c1ccc(NCc2cc(-c3ccc(-c4cnco4)cc3)ccc2F)cn1 [Example 32] | – | 174 nM | – | 56 μg/mL
16 | Cc1cc(OCC2(O)CCS(=O)(=O)CC2)cc(C)c1-c1ccc(F)c(CNc2ccc([C@H]3C[C@@H]3C(=O)O)nc2)c1 [Example 46] | – | 171 nM | 102 μg/mL | –
